{"source": "patent US20240148809A1", "about": "“CANNABIS PREVENTS NK IN[…] CANCER AND INCREASES NK FUNCTION” (The Regents of the University of California, priority 2020, published 2024)", "key": {"[1]": {"system": "Oral Squamous Carcinoma Stem Cells (OSCSCs)", "experiment": "Cell death assay in OSCSCs (loss of forward scatter and propidium iodide staining, flow cytometry)", "format": "cell-based, human", "settings": "for % PI: propidium iodide staining / % of decrease in FS: Percent of cells that lost FS in total population of tumor cells: overnight", "protocol": "(§1) Oral Squamous Carcinoma Cells (OSCCs) and stem-like Oral Squamous Carcinoma Stem Cells (OSCSCs) were isolated from tumors of oral cancer patients at UCLA, and cultured in RPMI 1640 supplemented with 10% FBS (Gemini Bio-Products, CA, USA), 1.4% antibiotic antimycotic, 1% sodium pyruvate, 1.4% non-essential amino acids, 1% L-glutamine, 0.2% gentamicin (Gemini Bio-Products, CA, USA), and 0.15% sodium bicarbonate (Fisher Scientific, PA, USA).\n(§2) OSCCs and OSCSCs were treated with different concentrations of Win55,2122-2 and cis-diamminedichloridoplatinum (II) (CDDP) as shown in FIGS. 1A-1B, FIG. 2 and Tables 1 and 2, and cultured overnight at 37 C in 5% CO2.\n(§3) After an overnight incubation the cells were washed twice and stained with Propidium iodide at a concentration of […], as described by Jewett, A., et al., J Immunol, 1997. 159(10): p. 4815-22; Jewett, A. and B. Bonavida, J Clin Immunol, 1995. 15(1): p. 35-44; and Jewett, A. and B. Bonavida, J Immunol, 1996. 156(3): p. 907-15, each of which is incorporated herein by reference in its entirety.\n(§4) Flow cytometric analysis was performed using Attune flow cytometer. Briefly, cells were analyzed based on Forward angle light scatter (FS) and Side scatter (SS), and the proportions of cells that had lost FS and became small were determined in total populations of tumor cells. Untreated and DMSO treated tumors were used as controls. In addition, the proportions of cells that were stained with PI were also determined.\nOSCSCs are stem like oral squamous carcinoma cells; OSCSCs were treated with different concentrations of Win55,2122-2, as indicated in FIG. 2 and Table 2."}, "CD3+ T cells (IFN-γ)": {"system": "CD3+ T cells (IFN-γ)", "experiment": "IFN-γ ELISA of culture supernatants of CD3+ T cells from splenocytes of treated hu-BLT mice", "format": "in vivo", "settings": "IP for 27 days, in words", "protocol": "(§5) PBMCs (FIG. 11A and FIG. 11B) and CD3+ T cells (FIG. 11C) were isolated from hu-BLT mice after treatment of WIN 55,212-2 (intraperitoneal (IP) injection every 2 days at 2 mg/Kg in DMSO+saline for 27 days before sacrifice) or IL-15 (IP injection of 5 μg per mice for 27 days). PBMCs were isolated from peripheral blood and treated with IL-2 (1000 u/ml) overnight before they were used in 51 Cr release assay. The Lytic units (LU) 30/10^6 cells were determined by plotting the % cytotoxicity obtained at different effector to target ratios, and using that curve to determine the inverse number of NK cells required to lyse 30% of OSCSCs×100. The numbers of LU were then adjusted based on the % of NK cells obtained by flow cytometric analysis (FIG. 11A). PBMCs and CD3+ T cells culture supernatants were collected and IFN-γ secretions were determined using ELISA (FIG. 11B and FIG. 11C). CD3 T cells were isolated from splenocytes by negative selection of CD3+ T cells using an isolation kit (Stem cell technologies)."}, "PBMCs (IFN-γ) [2]": {"system": "PBMCs (IFN-γ)", "experiment": "IFN-γ ELISA of PBMC culture supernatants of treated hu-BLT mice", "format": "in vivo", "settings": "IP for 27 days, in words", "protocol": "as §5"}, "[3]": {"system": "Oral Squamous Carcinoma Cells (OSCCs)", "experiment": "Cell death assay in OSCCs (loss of forward scatter and propidium iodide staining, flow cytometry)", "format": "cell-based, human", "settings": "for % PI: Percent cell death induced in total population of tumor cells, as visualized by PI / % decrease in FS: Percent of cells that lost FS in total population of tumor cells: OSCC, overnight", "protocol": "as §1, §2, §3, §4\nOSCCs are differentiated oral squamous carcinoma cells; OSCCs were treated with different concentrations of Win55,2122-2, as indicated in FIGS. 1A-1B and Table 1."}, "[4]": {"system": "NK cells in PBMCs (cytotoxicity against OSCSCs)", "experiment": "51Cr release assay with PBMCs of treated hu-BLT mice against OSCSCs", "format": "in vivo", "settings": "IP for 27 days, PBMCs treated with IL-2 overnight, in words", "protocol": "as §5"}, "PBMCs (IFN-γ) [5]": {"system": "PBMCs (IFN-γ)", "experiment": "ELISPOT for IFN-γ spots in PBMCs of breast cancer patient P38/P77 treated with CBD", "format": "in vivo, human", "settings": "in words", "protocol": "FIG. 10A-FIG. 10B show results of an enzyme-linked immunospot (ELISPOT) assay that was conducted to determine the numbers of IFN-γ spots representing the number of cells expressing IFN-γ. Treated (IL2, IL2+antiCD16, IL2+antiCD3/28) and untreated PMBC cells of a breast cancer patient P38 (who was treated with CBD) compared to two healthy control subjects, H43 and H44 (FIG. 10A). Treated (IL2, IL2+antiCD16, IL2+antiCD3/28) and untreated PMBC cells of a breast cancer patient P77 VB (who was treated with CBD) compared to a healthy control subject, H74 (FIG. 10B).\n80 μl of anti-human IFN-γ capture antibody was added to each well of a 96-well high-protein-binding PVDF filter plate and incubated overnight at 4° C. The plate was washed with […] of PBS once before adding samples into the plate. 50,000 cells in 200 μl of RPMI were added into each well and incubate at 37° C., 5% CO2 overnight. After incubation, the plate was washed twice with 200 μl PBS followed by 0.05% 200 μl Tween-PBS twice. […] of anti-human IFN-γ detection antibody was added into each well and incubated at room temperature for 2 hours and the plate was washed three times with 200 μI/well of 0.05% Tween-PBS. 80 μI/well of tertiary solution which was made from 1:1000 diluted Strep-AP was added in the plate and incubated for 30 minutes. […]"}}}
{"compound": "CS(=O)(=O)O.Cc1c(C(=O)c2cccc3ccccc23)c2cccc3c2n1[C@H](CN1CCOCC1)CO3", "note": "[Win55,2122-2, (R)-(+)-[2,3-Dihydro-5-methyl-3-(4-morpholinylmethyl)pyrrolo[1,2,3-de]-1,4-benzoxazin-6-yl]-1-naphthalenylmethanone mesylate]", "values": [{"measurement": "% PI: propidium iodide staining", "setting": "[1]; 5 μM", "result": 11.5, "unit": "%"}, {"measurement": "% of decrease in FS: Percent of cells that lost FS in total population of tumor cells", "setting": "[1]; 5 μM", "result": 15, "unit": "%"}, {"measurement": "% PI: propidium iodide staining", "setting": "[1]; 25 μM", "result": 26.3, "unit": "%"}, {"measurement": "% of decrease in FS: Percent of cells that lost FS in total population of tumor cells", "setting": "[1]; 25 μM", "result": 24, "unit": "%"}, {"measurement": "% PI: propidium iodide staining", "setting": "[1]; 50 μM", "result": 21.7, "unit": "%"}, {"measurement": "% of decrease in FS: Percent of cells that lost FS in total population of tumor cells", "setting": "[1]; 50 μM", "result": 16, "unit": "%"}, {"measurement": "cell death by staining with PI", "setting": "[1]; compared to untreated or DMSO treated tumors, in words", "result": "no or moderate levels of cell death"}, {"measurement": "change of FS", "setting": "[1]; even at the higher concentrations, in words", "result": "did not change FS"}, {"measurement": "IFN-γ secretion in CD3+ T cells", "setting": "CD3+ T cells (IFN-γ)", "result": "higher"}, {"measurement": "IFN-γ secretion in PBMC", "setting": "PBMCs (IFN-γ) [2]", "result": "higher"}, {"measurement": "% PI: Percent cell death induced in total population of tumor cells, as visualized by PI", "setting": "[3]; 5 μM", "result": 23.1, "unit": "%"}, {"measurement": "% decrease in FS: Percent of cells that lost FS in total population of tumor cells", "setting": "[3]; 5 μM", "result": 52, "unit": "%"}, {"measurement": "% PI: Percent cell death induced in total population of tumor cells, as visualized by PI", "setting": "[3]; 25 μM", "result": 32.9, "unit": "%"}, {"measurement": "% decrease in FS: Percent of cells that lost FS in total population of tumor cells", "setting": "[3]; 25 μM", "result": 75, "unit": "%"}, {"measurement": "% PI: Percent cell death induced in total population of tumor cells, as visualized by PI", "setting": "[3]; 50 μM", "result": 51.6, "unit": "%"}, {"measurement": "% decrease in FS: Percent of cells that lost FS in total population of tumor cells", "setting": "[3]; 50 μM", "result": 78, "unit": "%"}, {"measurement": "% PI: Percent cell death induced in total population of tumor cells, as visualized by PI", "setting": "[3]; 100 μM", "result": 51.6, "unit": "%"}, {"measurement": "% decrease in FS: Percent of cells that lost FS in total population of tumor cells", "setting": "[3]; 100 μM", "result": 77, "unit": "%"}, {"measurement": "induction of cell death in differentiated oral tumors", "setting": "[3]; OSCCs, in words", "result": "potent inducer of cell death"}, {"measurement": "NK cell mediated cytotoxicity in PBMC", "setting": "[4]", "result": "higher"}]}
{"compound": "C=C(C)[C@@H]1CCC(C)=C[C@H]1c1c(O)cc(CCCCC)cc1O", "note": "[CBD, Cannabidiol]", "values": [{"measurement": "PBMC expression of IFN-γ (ELISPOT) compared to healthy control", "setting": "PBMCs (IFN-γ) [5]", "result": "Comparable"}]}
{"compound": "N.N.[Cl][Pt][Cl]", "note": "[CDDP, cis-diamminedichloridoplatinum (II)]", "values": [{"measurement": "% PI: Percent cell death induced in total population of tumor cells, as visualized by PI", "setting": "[3]; 30 μg/ml", "result": 23.8, "unit": "%"}, {"measurement": "% decrease in FS: Percent of cells that lost FS in total population of tumor cells", "setting": "[3]; 30 μg/ml", "result": 51, "unit": "%"}, {"measurement": "% PI: Percent cell death induced in total population of tumor cells, as visualized by PI", "setting": "[3]; 50 μg/ml", "result": 18.9, "unit": "%"}, {"measurement": "% decrease in FS: Percent of cells that lost FS in total population of tumor cells", "setting": "[3]; 50 μg/ml", "result": 53, "unit": "%"}]}
{"compound": "IL-15: IL-15, IP injection of 5 μg per mice for 27 days in hu-BLT mice", "values": [{"measurement": "IFN-γ secretion in CD3+ T cells", "setting": "CD3+ T cells (IFN-γ)", "result": "higher"}, {"measurement": "NK cell mediated cytotoxicity in PBMC", "setting": "[4]", "result": "higher"}]}
